biological target: T1, Tyrosine-protein phosphatase non-receptor type 22 (Homo sapiens, UniProt Q9Y2R2); experiment: Inhibition of lymphoid specific tyrosine phosphatase
T1 sequence (Q9Y2R2 whole entry): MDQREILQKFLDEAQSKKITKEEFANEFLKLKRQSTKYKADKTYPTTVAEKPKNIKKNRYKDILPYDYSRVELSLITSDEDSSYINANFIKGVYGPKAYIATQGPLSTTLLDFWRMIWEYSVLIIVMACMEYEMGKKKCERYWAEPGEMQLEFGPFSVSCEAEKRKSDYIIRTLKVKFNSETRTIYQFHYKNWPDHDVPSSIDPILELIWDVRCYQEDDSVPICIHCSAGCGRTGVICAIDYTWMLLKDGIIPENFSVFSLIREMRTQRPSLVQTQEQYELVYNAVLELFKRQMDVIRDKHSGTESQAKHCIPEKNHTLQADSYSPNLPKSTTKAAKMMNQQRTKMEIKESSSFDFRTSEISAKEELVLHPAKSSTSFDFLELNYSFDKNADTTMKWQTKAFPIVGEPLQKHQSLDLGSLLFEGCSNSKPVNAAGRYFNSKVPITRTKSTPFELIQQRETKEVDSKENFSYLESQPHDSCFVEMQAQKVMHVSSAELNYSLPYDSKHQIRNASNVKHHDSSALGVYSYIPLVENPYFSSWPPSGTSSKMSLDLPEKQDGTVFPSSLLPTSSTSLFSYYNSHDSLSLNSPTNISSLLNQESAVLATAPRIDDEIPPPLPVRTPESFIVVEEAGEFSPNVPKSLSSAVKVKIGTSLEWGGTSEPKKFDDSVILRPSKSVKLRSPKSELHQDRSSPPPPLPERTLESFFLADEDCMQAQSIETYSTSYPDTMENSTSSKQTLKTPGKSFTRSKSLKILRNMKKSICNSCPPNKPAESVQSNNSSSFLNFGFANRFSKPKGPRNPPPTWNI

Row | SMILES | IC50 [µM]
1 | O=C(O)Cn1c(O)cn(N=Cc2ccc(-c3ccc(O)c(C(=O)O)c3)s2)c1=O | > 44
2 | COC(=O)c1cc(-c2ccc(C=Nn3cc(O)[nH]c3=O)s2)ccc1O | > 44
3 | O=C(O)c1cc(-c2ccc(C=Nn3cc(O)[nH]c3=O)o2)ccc1O | > 44
4 | COC(=O)c1cc(-c2ccc(C=Nn3cc(O)[nH]c3=O)o2)ccc1O | > 44
